Test results taken from patent publication US20170008888A1 (KYORIN PHARMACEUTICAL CO., LTD., priority 2014, published 2017).
Like-named read-outs stand apart in the source and are kept apart here.

Legend:
[1] = test system: TLR2 signaling in primary human umbilical vein endothelial cells; test: Cytokine response to TLR2 agonism (Pam3CysK4) in primary HUVEC (ELISA); assay type: cell-based; details: for IL-8: 5 μM inhibitor
Source text: It has been reported in the literature that that ERK5 mediates TLR2-dependent inflammatory signaling in several cell types including human umbilical vein endothelial cells (HUVEC). See Wilhelmsen et al., J Biol Chem. 2012; 287:26478-94. Wilhelmsen et al. further reported that MEK1 negatively regulates TLR2 signaling in HUVECs, with pharmacological inhibition of MEK1 augmenting (IL-6, G-CSF, GM-CSF) or not changing (IL-8) pro-inflammatory cytokine release in response to TLR2 stimulation.
(§1) In this example, the following commercially available inhibitors were tested:
(§2) The results were compared with test compound 61.
(§3) Pooled primary human umbilical vein endothelial cells (HUVEC) were obtained from Lonza (Allendale, N.J.) and maintained in either complete EGM-2 defined media (Lonza) or Medium 200 supplemented with Low Serum Growth Supplement (Life Technologies, Grand Island, N.Y.). Cells at low passage (<5) were seeded at 4e5 cells/ml and allowed to adhere overnight at 37° C. in a humidified atmosphere at 5% CO2. Cells were pre-treated with test compounds for 1 h prior to TLR2 or TLR4 stimulation. To test for the effects of TLR2 agonism, the TLR2 agonist peptide Pam3CysK4 (Santa Cruz Biotechnology, Dallas, Tex.) was used at 10 μg/ml. PHC-SKKK (Enzo Life Sciences, Farmingdale, N.Y.) served as the negative control peptide. To test for the effects of TLR4 agonism, LPS from E. coli 0111:B4 (EMD Millipore, Billerica, Mass.) was used at 100 ng/ml. Cells were incubated for 22 hr, after which the supernatant was collected and analyzed for cytokine concentrations by ELISA (Life Technologies). Absorbance at 450 nm was read using the Wallac 1420 Victor^2 multilabel microplate reader (Perkin Elmer, Waltham, Mass.).

[2] = test system: MV-4-11 cells; test: MV-4-11 proliferation EC50 assay (CellTiter-Glo); assay type: cell-based; details: Homo sapiens, MV4-11, 48 h, read-out: MV-4-11 proliferation EC50, ave. ± S.D.
Protocol: Human biphenotypic B myelomonocytic leukemia MV-4-11 cells (ATCC, Manassas, Va.) were treated with test compounds at 2e5 cells/ml in IMDM medium containing 10% (v/v) FBS (Life Technologies, Grand Island, N.Y.) and 1×Pen/Strep Amphotericin B (Lonza, Allendale, N.J.). Compounds were tested at 25 μM down by ⅓ in a 9 point serial dilution series. Cells were incubated for 48 h at 37° C. in a humidified atmosphere at 5% CO2. MV-4-11 cell proliferation was then indirectly determined via cellular ATP content using the CellTiter-Glo® Luminescent Cell Viability Assay (Promega, Madison, Wis.) as per the manufacturer's instructions. Briefly, experimental plates were equilibrated at room temperature for 30 minutes. An equal volume of CellTiter-Glo® reagent was added to each well and incubated for 15 minutes at room temperature. Luminescent signal was read using the Wallac 1420 Victor^2 multilabel microplate reader (Perkin Elmer, Waltham, Mass.). EC50 values were determined using GraphPad Prism software v5.04.

[3] = test system: TLR4 signaling in primary human umbilical vein endothelial cells; test: Cytokine response to TLR4 agonism (LPS) in primary HUVEC (ELISA); assay type: cell-based
Protocol: as §1, §2, §3

[4] = test system: primary human keratinocytes; test: IL-17A-stimulated cytokine response by primary human keratinocytes; assay type: cell-based; details: Keratinocyte, 200 ng/ml IL-17A, 48 h
Protocol: Primary human keratinocytes were obtained from Life Technologies (Grand Island, N.Y.) and maintained in growth supplemented Defined Keratinocyte-SFM Medium (Life Technologies). Cells were seeded at 2.5e4 cells/ml onto collagen-coated plates and incubated at 37° C. in a humidified atmosphere at 5% CO2 until the cells reached confluence. Cells were pre-treated with test compounds (10 μM down by ⅕ in a 4-point serial dilution series) for 1 h at 37° C. in a humidified atmosphere at 5% CO2. DMSO at a final concentration of 0.1% served as the non-inhibited control. Cells were then stimulated with 200 ng/ml human recombinant IL-17A (eBioscience, San Diego, Calif.) for 48 h. Supernatant was collected and analyzed for cytokine concentrations using the Human Inflammatory Magnetic 5-Plex Panel from Life Technologies according to the manufacturer's instructions. Magnetic beads were measured on the Bio-Plex MAGPIX multiplex reader instrument using the accompanying xPONENT 4.2 acquisition software (Bio-Rad Laboratories, Hercules, Calif.). Data were analyzed via the Bio-Plex Manager software v6.1 (Bio-Rad Laboratories).

[5] = target: T1, TAF1 (Homo sapiens, UniProt P21675); test: Bromodomain binding assay: TAF1
T1 construct: made in house; host or cells: E. coli host derived from the BL21 strain (T7 phage lysate)
T1 sequence (P21675 1519-1628 limits assumed): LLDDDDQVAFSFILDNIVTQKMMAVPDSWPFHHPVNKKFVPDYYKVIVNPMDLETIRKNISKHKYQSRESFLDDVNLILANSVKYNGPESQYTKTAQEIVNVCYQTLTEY
Protocol: (§4) T7 phage strains displaying bromodomains were grown in parallel in 24-well blocks in an E. coli host derived from the BL21 strain. E. coli were grown to log-phase and infected with T7 phage from a frozen stock (multiplicity of infection=0.4) and incubated with shaking at 32° C. until lysis (90-150 minutes). The lysates were centrifuged (5,000×g) and filtered (0.2 μm) to remove cell debris. […] The liganded beads were blocked with excess biotin and washed with blocking buffer (SeaBlock (Pierce), 1% BSA, 0.05 Tween 20, 1 mM DTT) to remove unbound ligand and to reduce non-specific phage binding. […] Test compounds (T62 and 46) were prepared as 1000× stocks in 100% DMSO and subsequently diluted 1:10 in monoethylene glycol (MEG) to create stocks at 100× the screening concentration (resulting stock solution is 10% DMSO/90% MEG). The compounds were then diluted directly into the assays such that the final concentration of DMSO and MEG were 0.1% and 0.9%, respectively. All reactions were performed in polystyrene 96-well plates in a final volume of 0.135 ml. […] The bromodomain concentration in the eluates was measured by qPCR. Compounds were assayed for binding activity against a panel of 40 bromodomain-containing proteins.

[6] = target: T2, TAF1L (Homo sapiens, UniProt Q8IZX4); test: Bromodomain binding assay: TAF1L
T2 construct: made in house; host or cells: E. coli host derived from the BL21 strain (T7 phage lysate)
T2 sequence (Q8IZX4 1517-1626 limits assumed): as the sequence (P21675 1519-1628 limits assumed) above, with V46M, M51V, V102I, L107I counted along it
Protocol: as §4

## CCOc1cc(C(=O)N2CCC(N3CCN(C)CC3)CC2)ccc1Nc1cc2c(cn1)N(C)C(=O)c1ccccc1N2C [Compound 61]
[1]; +10 μg/ml PHC-SKKK (negative control peptide), 22 hr
  IL-8: 0 ± 17 pg/mL
[1]; +10 μg/ml Pam3CysK4, 22 hr
  IL-8: 133 ± 9 pg/mL
[1]; summary of Table 22
  IL-8 response to TLR2 (Pam3CysK4) stimulation, in words: reduced the IL-8 response
[2]
  EC50: 700 ± 50 nM
[3]; 5 μM inhibitor, +100 ng/ml LPS
  G-CSF: 14 ± 5 pg/mL
  IL-6: 113 ± 14 pg/mL
[3]; 5 μM inhibitor, +100 ng/ml LPS, 22 hr
  IL-8: 1105 ± 25 pg/mL
[3]; 5 μM inhibitor, No Stimulation
  G-CSF: 0 ± 25 pg/mL
  IL-6: 7 ± 1 pg/mL
[3]; summary of Table 23
  G-CSF response to TLR4 agonism, in words: reduced the G-CSF response
[3]; summary of Table 24
  IL-6 response, in words: reduced

## CCOc1cc(C(=O)N2CC[C@@H](N(C)C)C2)ccc1Nc1cc2c(cn1)N(C)C(=O)c1ccccc1N2C [Compound 115]
[4]; read-out: Inhibition EC50 (μM), GM-CSF
  EC50: 2.18 µM
[4]; read-out: Inhibition EC50 (μM), IL-1β
  EC50: 0.5 µM
[4]; read-out: Inhibition EC50 (μM), IL-6
  EC50: 0.35 µM
[4]; read-out: Inhibition EC50 (μM), IL-8
  EC50: 0.46 µM
[4]; read-out: Inhibition EC50 (μM), TNF-α
  EC50: 1 µM

## CCOc1cc(C(=O)N[C@H]2CC[C@H](O)CC2)ccc1Nc1cc2c(cn1)N(C)C(=O)c1ccccc1N2C [Compound T62]
[5]; read-out: Kd (nM) TAF1
  Kd: 12000 nM
[5]; read-out: Kd for binding to TAF1
  Kd: > 20000 nM
[6]; read-out: Kd (nM) TAF1L
  Kd: 19000 nM
[6]; read-out: Kd for binding to TAF1L
  Kd: > 20000 nM
